#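 Interpolation was linear, between the two tested concentrations surrounding the appropriate level; five concentrations were tested over 48 hours in 96-well plates. The concentration for full growth arrest is given as TGI.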
# Assays:
# Assay in all cases: NCI-60 cell line screen, 48 h
# A498 renal = tested on: A498 renal
# ACHN renal = tested on: ACHN renal
# COLO 205 colon = tested on: COLO 205 colon
# HCC-2998 colon = tested on: HCC-2998 colon
# HCT-116 colon = tested on: HCT-116 colon
# HCT-15 colon = tested on: HCT-15 colon
# HOP-62 NSCLC = tested on: HOP-62 NSCLC
# HT29 colon = tested on: HT29 colon
# IGROV1 ovarian = tested on: IGROV1 ovarian
# KM12 colon = tested on: KM12 colon
# MALME-3M melanoma = tested on: MALME-3M melanoma
# MOLT-4 leukemia = tested on: MOLT-4 leukemia
# NCI/ADR-RES ovarian = tested on: NCI/ADR-RES ovarian
# OVCAR-8 ovarian = tested on: OVCAR-8 ovarian
# SK-MEL-2 melanoma = tested on: SK-MEL-2 melanoma
# SN12C renal = tested on: SN12C renal
# T-47D breast = tested on: T-47D breast
# TK-10 renal = tested on: TK-10 renal
# UACC-62 melanoma = tested on: UACC-62 melanoma
# NCI-H460 lung = tested on: NCI-H460 lung
smiles,measurement,setting,value
CC1=C(C#N)C(C#N)(C#N)C(NN(C)C)C1 (stereo not drawn),TGI,A498 renal,43 µM
same,TGI,ACHN renal,34.6 µM
same,TGI,COLO 205 colon,16.1 µM
same,TGI,HCC-2998 colon,32.1 µM
same,TGI,HCT-116 colon,29.2 µM
same,TGI,HCT-15 colon,21.3 µM
same,TGI,HOP-62 NSCLC,30.4 µM
same,TGI,HT29 colon,38.3 µM
same,TGI,IGROV1 ovarian,40.9 µM
same,TGI,KM12 colon,31.8 µM
same,TGI,MALME-3M melanoma,98.2 µM
same,TGI,MOLT-4 leukemia,79.5 µM
same,TGI,NCI/ADR-RES ovarian,> 100 µM
same,TGI,OVCAR-8 ovarian,> 100 µM
same,TGI,SK-MEL-2 melanoma,39.5 µM
same,TGI,SN12C renal,27.3 µM
same,TGI,T-47D breast,27.8 µM
same,TGI,TK-10 renal,34 µM
same,TGI,UACC-62 melanoma,61.6 µM
CN(c1ccc(Cl)cc1)S(=O)(=O)c1ccc([N+](=O)[O-])cc1,TGI,ACHN renal,> 100 µM
same,TGI,COLO 205 colon,> 100 µM
same,TGI,HCC-2998 colon,> 100 µM
same,TGI,HCT-116 colon,> 100 µM
same,TGI,HCT-15 colon,> 100 µM
same,TGI,HOP-62 NSCLC,> 100 µM
same,TGI,HT29 colon,> 100 µM
same,TGI,IGROV1 ovarian,> 100 µM
same,TGI,KM12 colon,> 100 µM
same,TGI,MALME-3M melanoma,> 100 µM
same,TGI,MOLT-4 leukemia,> 100 µM
same,TGI,NCI-H460 lung,> 100 µM
same,TGI,NCI/ADR-RES ovarian,> 100 µM
same,TGI,OVCAR-8 ovarian,> 100 µM
same,TGI,SK-MEL-2 melanoma,> 100 µM
same,TGI,SN12C renal,> 100 µM
same,TGI,T-47D breast,> 100 µM
same,TGI,TK-10 renal,> 100 µM
same,TGI,UACC-62 melanoma,> 100 µM
CCCCCCCCCCCCCCCCCCNc1ccn(C2OC(COP(=O)(O)OCC3OC(n4cc(C)c(=O)[nH]c4=O)CC3O)C(O)C2O)c(=O)n1 (stereo not drawn),TGI,A498 renal,58.3 µM
same,TGI,ACHN renal,44.4 µM
same,TGI,COLO 205 colon,28.1 µM
same,TGI,HCC-2998 colon,32.6 µM
same,TGI,HCT-116 colon,30.8 µM
same,TGI,HCT-15 colon,33.5 µM
same,TGI,HOP-62 NSCLC,32.4 µM
same,TGI,HT29 colon,30.4 µM
same,TGI,KM12 colon,36.4 µM
same,TGI,MALME-3M melanoma,31.4 µM
same,TGI,MOLT-4 leukemia,25.7 µM
same,TGI,NCI-H460 lung,36.3 µM
same,TGI,NCI/ADR-RES ovarian,31.3 µM
same,TGI,OVCAR-8 ovarian,31.6 µM
same,TGI,SN12C renal,33.4 µM
same,TGI,T-47D breast,41.8 µM
same,TGI,TK-10 renal,22.3 µM
same,TGI,UACC-62 melanoma,33.8 µM
COc1nc(C(=O)NNC(=O)c2nc(OC)c3ccccc3c2-c2ccccc2)c(-c2ccccc2)c2ccccc12,TGI,A498 renal,> 100 µM
same,TGI,ACHN renal,> 100 µM
same,TGI,COLO 205 colon,> 100 µM
same,TGI,HCC-2998 colon,> 100 µM
same,TGI,HCT-116 colon,> 100 µM
same,TGI,HCT-15 colon,> 100 µM
same,TGI,HOP-62 NSCLC,> 100 µM
same,TGI,HT29 colon,> 100 µM
same,TGI,IGROV1 ovarian,> 100 µM
same,TGI,KM12 colon,> 100 µM
same,TGI,MALME-3M melanoma,> 100 µM
same,TGI,MOLT-4 leukemia,> 100 µM
same,TGI,NCI/ADR-RES ovarian,> 100 µM
same,TGI,OVCAR-8 ovarian,> 100 µM
same,TGI,SK-MEL-2 melanoma,> 100 µM
same,TGI,SN12C renal,> 100 µM
same,TGI,T-47D breast,> 100 µM
same,TGI,TK-10 renal,> 100 µM
same,TGI,UACC-62 melanoma,> 100 µM
CS(=O)(=O)Nc1ccc(N2Cc3cnc4ccc5[nH]ccc2c5c34)cc1,TGI,A498 renal,49.4 µM
same,TGI,ACHN renal,> 100 µM
same,TGI,COLO 205 colon,32.2 µM
same,TGI,HCT-116 colon,27.8 µM
same,TGI,HCT-15 colon,> 100 µM
same,TGI,HOP-62 NSCLC,59.2 µM
same,TGI,HT29 colon,95.7 µM
same,TGI,IGROV1 ovarian,79.9 µM
same,TGI,KM12 colon,> 100 µM
same,TGI,MALME-3M melanoma,19.1 µM
same,TGI,MOLT-4 leukemia,8.94 µM
same,TGI,NCI-H460 lung,46.2 µM
same,TGI,NCI/ADR-RES ovarian,> 100 µM
same,TGI,OVCAR-8 ovarian,62.5 µM
same,TGI,SK-MEL-2 melanoma,31.7 µM
same,TGI,SN12C renal,35 µM
same,TGI,T-47D breast,20.5 µM
same,TGI,TK-10 renal,89.1 µM
same,TGI,UACC-62 melanoma,35.9 µM
CC(=O)OCCn1cnc2nc(Nc3ccccc3)nc(Cl)c21,TGI,A498 renal,> 100 µM
same,TGI,ACHN renal,> 100 µM
same,TGI,COLO 205 colon,88.1 µM
same,TGI,HCC-2998 colon,> 100 µM
same,TGI,HCT-116 colon,> 100 µM
same,TGI,HCT-15 colon,> 100 µM
same,TGI,HOP-62 NSCLC,> 100 µM
same,TGI,HT29 colon,> 100 µM
same,TGI,IGROV1 ovarian,> 100 µM
same,TGI,KM12 colon,> 100 µM
same,TGI,MALME-3M melanoma,> 100 µM
same,TGI,MOLT-4 leukemia,> 100 µM
same,TGI,NCI-H460 lung,> 100 µM
same,TGI,NCI/ADR-RES ovarian,> 100 µM
same,TGI,OVCAR-8 ovarian,> 100 µM
same,TGI,SN12C renal,> 100 µM
same,TGI,T-47D breast,> 100 µM
same,TGI,TK-10 renal,> 100 µM
same,TGI,UACC-62 melanoma,> 100 µM

# From PubChem BioAssay (NCI)
